In ChEMBL document CHEMBL1201862, “PubChem BioAssay data set” (2004):
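Cells were grown in 96-well plates and exposed to each compound for 48 hours at five concentrations; endpoints were interpolated linearly between bracketing concentrations, or set to the highest concentration if not reached. Abbreviation: GI50, concentration required for 50% inhibition of growth.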 Activity calls are given as the source filed them. No stated cut-off is given here; in the data, active = GI50 up to about 1.1 µM and inactive = higher.

How the values were obtained:
Test in all cases: NCI tumour cell line growth inhibition, 48 h
786-0 = system: 786-0
A549 = system: A549
CAKI-1 = system: CAKI-1
COLO 205 = system: COLO 205
HCT-116 = system: HCT-116
HCT-15 = system: HCT-15
HT-29 = system: HT-29
LOX IMVI = system: LOX IMVI
MDA-MB-231 = system: MDA-MB-231
MDA-MB-435 = system: MDA-MB-435
MOLT-4 = system: MOLT-4
Malme-3M = system: Malme-3M
NCI-H460 = system: NCI-H460
RPMI-8226 = system: RPMI-8226
RXF 393 = system: RXF 393
SK-MEL-2 = system: SK-MEL-2
SNB-19 = system: SNB-19
SR = system: SR
SW-620 = system: SW-620
UACC-257 = system: UACC-257

Compound	GI50 (786-0)	GI50 (A549)	GI50 (CAKI-1)	GI50 (COLO 205)	GI50 (HCT-116)	GI50 (HCT-15)	GI50 (HT-29)	GI50 (LOX IMVI)	GI50 (MDA-MB-231)	GI50 (MDA-MB-435)	GI50 (MOLT-4)	GI50 (Malme-3M)	GI50 (NCI-H460)	GI50 (RPMI-8226)	GI50 (RXF 393)	GI50 (SK-MEL-2)	GI50 (SNB-19)	GI50 (SR)	GI50 (SW-620)	GI50 (UACC-257)
CC(=O)OCC1C(=O)OCC1C(=O)N1Cc2cc3ccccc3nc2C1 (stereo not given)	1.58 µM (inactive)	15.3 µM (inactive)	0.955 µM (active)	0.653 µM (active)	1.27 µM (inactive)	1.95 µM	2.78 µM (inactive)	2.45 µM (inactive)	6.4 µM (inactive)	2.42 µM (inactive)	1.44 µM (inactive)	1.46 µM (inactive)	13.3 µM (inactive)	1.37 µM (inactive)	1.17 µM (inactive)	8.15 µM (inactive)	17.7 µM (inactive)	1.49 µM (inactive)	0.469 µM (active)	2.47 µM (inactive)
COC(=O)c1ccc(-c2nc(C#N)c(N)o2)cc1	59.3 µM (inactive)	> 100 µM (inactive)	> 100 µM (inactive)	> 100 µM (inactive)	> 100 µM (inactive)	> 100 µM	> 100 µM (inactive)	> 100 µM (inactive)	27.1 µM (inactive)	> 100 µM (inactive)	> 100 µM (inactive)	> 100 µM (inactive)	> 100 µM (inactive)	> 100 µM (inactive)	> 100 µM (inactive)	> 100 µM (inactive)	34.7 µM (inactive)	> 100 µM (inactive)	> 100 µM (inactive)	> 100 µM (inactive)
COc1cc([C@@H]2c3cc4c(cc3[C@@H](Nc3ccc(/N=C\c5ccc(C(=O)O[C@@H](C(=O)O[C@H]6C[C@@]7(O)[C@@H](OC(=O)c8ccccc8)[C@@H]8[C@]9(OC(C)=O)CO[C@@H]9C[C@H](O)[C@@]8(C)C(=O)[C@H](OC(C)=O)C(=C6C)C7(C)C)[C@@H](NC(=O)c6ccccc6)c6ccccc6)cc5)cc3)[C@H]3COC(=O)[C@H]23)OCO4)cc(OC)c1O	2.63 µM (inactive)	0.721 µM (active)	0.916 µM (active)	1.39 µM (inactive)	3.28 µM (inactive)	7.96 µM	9.04 µM (inactive)	3.49 µM (inactive)	20.7 µM (inactive)	0.208 µM (active)	0.14 µM (active)	> 50 µM (inactive)	0.113 µM (active)	2.59 µM (inactive)	6.12 µM (inactive)	> 33.7 µM (inactive)	2.48 µM (inactive)	0.0102 µM (active)	8.73 µM (inactive)	28.6 µM (inactive)
Cc1ccc2[nH]c(=N/c3ccccc3C)/c(=N\c3ccccc3C)[nH]c2c1	30 µM (inactive)	20.5 µM (inactive)	27.9 µM (inactive)	16.1 µM (inactive)	17.7 µM (inactive)	22.3 µM	23 µM (inactive)	20 µM (inactive)	17.1 µM (inactive)	32.2 µM (inactive)	> 100 µM (inactive)	22.2 µM (inactive)	17.3 µM (inactive)	> 100 µM (inactive)	17.3 µM (inactive)	12.7 µM (inactive)	46.8 µM (inactive)	> 100 µM (inactive)	32.3 µM (inactive)	25.6 µM (inactive)
C=CC[C@@]12CCC(=O)C=C1CCCC2=O	> 100 µM (inactive)	> 100 µM (inactive)	> 100 µM (inactive)	> 100 µM (inactive)	> 100 µM (inactive)	> 100 µM	> 100 µM (inactive)	> 100 µM (inactive)	> 100 µM (inactive)	> 100 µM (inactive)	> 100 µM (inactive)	> 100 µM (inactive)	> 100 µM (inactive)	> 100 µM (inactive)	> 100 µM (inactive)	> 100 µM (inactive)	> 100 µM (inactive)	> 100 µM (inactive)	> 100 µM (inactive)	> 100 µM (inactive)
CCOC(=O)C1(O)C(=O)C2=C3C(=O)OC(C4OC(=O)c5c(c(O)c(O)c(O)c5C31)-c1c(cc(O)c(O)c1O)C(=O)OC1COC(=O)c3cc(O)c(O)c(O)c3-c3c(cc(O)c(O)c3O)C(=O)OC14)[C@@H]2O (stereo not given in full)	19.2 µM (inactive)	15.2 µM (inactive)	13 µM (inactive)	15.7 µM (inactive)	15.6 µM (inactive)	17.6 µM	18.5 µM (inactive)	15.8 µM (inactive)	15.2 µM (inactive)	13 µM (inactive)	22 µM (inactive)	26.9 µM (inactive)	29.3 µM (inactive)	28.5 µM (inactive)	17.5 µM (inactive)	25.7 µM (inactive)	> 100 µM (inactive)	30.8 µM (inactive)	20.7 µM (inactive)	28.5 µM (inactive)
Cn1c(N/N=C/c2ccccc2)nc(-c2ccc([N+](=O)[O-])cc2)c(C#N)c1=O	91.8 µM (inactive)	28.8 µM (inactive)	54.5 µM (inactive)	44.2 µM (inactive)	27.6 µM (inactive)	30.5 µM	45.7 µM (inactive)	61.8 µM (inactive)	19.5 µM (inactive)	> 100 µM (inactive)	10.4 µM (inactive)	33.1 µM (inactive)	32.1 µM (inactive)	17.7 µM (inactive)	53.8 µM (inactive)	34.4 µM (inactive)	> 100 µM (inactive)	2.63 µM (inactive)	65.8 µM (inactive)	50 µM (inactive)
Cc1cccc(CC(Cc2ccc(C)cc2C(=O)O)C(=O)O)c1 (stereo not given)	> 100 µM (inactive)	> 100 µM (inactive)	> 100 µM (inactive)	> 100 µM (inactive)	> 100 µM (inactive)	> 100 µM	> 100 µM (inactive)	> 100 µM (inactive)	> 100 µM (inactive)	> 100 µM (inactive)	> 100 µM (inactive)	> 100 µM (inactive)	> 100 µM (inactive)	> 100 µM (inactive)	> 100 µM (inactive)	> 100 µM (inactive)	> 100 µM (inactive)	> 100 µM (inactive)	> 100 µM (inactive)	> 100 µM (inactive)
COC(=O)Cc1ccc(Oc2nc3ccccc3nc2-c2cccs2)cc1	40.7 µM (inactive)	> 100 µM (inactive)	> 100 µM (inactive)	> 100 µM (inactive)	> 100 µM (inactive)	> 100 µM	> 100 µM (inactive)	> 100 µM (inactive)	27.2 µM (inactive)	> 100 µM (inactive)	> 100 µM (inactive)	> 100 µM (inactive)	> 100 µM (inactive)	> 100 µM (inactive)	19.1 µM (inactive)	53.5 µM (inactive)	40.8 µM (inactive)	> 100 µM (inactive)	> 100 µM (inactive)	> 100 µM (inactive)
